Test results taken from patent US20220193205A1, “METHODS OF TREATING CANCER” (Foghorn Therapeutics Inc., priority 2019, published 2022).

System: ATRX null/ALT+ osteosarcoma cell line SAOS2
Experiment: Cell viability by CellTiter-Glo after siRNA delivery
Format: cell-based
Details: compared to negative control siRNA, FIG. 3
Protocol: Procedure: SAOS2 cell line was seeded in 100 μL of media in 96-well plates (Corning 3904) excluding edge wells at the following density of 10000 cells per well. SOAS2 cells were seeded the day prior to transduction. Custom Stealth siRNA and Negative Control siRNA were ordered from ThermoFisher. The procedure for siRNA delivery was conducted based on the manufacturer's recommendation. The SMARCAL1 targeting siRNA sequence is: […] (SEQ ID NO: 356).
Cell viability was assayed using CellTiter-Glo (Promega G7572) at 100 μL per well. Luminescence was read using PerkinElmer EnVision 2105. Values were normalized to the average values from the negative control sgRNAs. Experiments were performed three times. Shown are the triplicate results of one representative experiment. Two tailed, type 3 Student's t-test was performed to determine statistical significance, which was conducted on Microsoft Excel (Microsoft).

UUUCACAGAGAAAUGCUUAUGCAGG (siRNA; commercial Stealth siRNA, chemistry not given here, further chemistry not given here; listed as Homo sapiens) [siRNA targeting SMARCAL-1, Custom Stealth siRNA targeting SMARCAL1, ordered from ThermoFisher]
cell viability: decreased viability
